Biological target: T1, sGC α1/β1 heterodimer (Homo sapiens, UniProt Q02108+Q02153)
T1 construct: expressed in transfected cells; host or cells: CHO-K1 (clone #7, CHO-K1/sGC)
T1 sequence (Q02108 1-690): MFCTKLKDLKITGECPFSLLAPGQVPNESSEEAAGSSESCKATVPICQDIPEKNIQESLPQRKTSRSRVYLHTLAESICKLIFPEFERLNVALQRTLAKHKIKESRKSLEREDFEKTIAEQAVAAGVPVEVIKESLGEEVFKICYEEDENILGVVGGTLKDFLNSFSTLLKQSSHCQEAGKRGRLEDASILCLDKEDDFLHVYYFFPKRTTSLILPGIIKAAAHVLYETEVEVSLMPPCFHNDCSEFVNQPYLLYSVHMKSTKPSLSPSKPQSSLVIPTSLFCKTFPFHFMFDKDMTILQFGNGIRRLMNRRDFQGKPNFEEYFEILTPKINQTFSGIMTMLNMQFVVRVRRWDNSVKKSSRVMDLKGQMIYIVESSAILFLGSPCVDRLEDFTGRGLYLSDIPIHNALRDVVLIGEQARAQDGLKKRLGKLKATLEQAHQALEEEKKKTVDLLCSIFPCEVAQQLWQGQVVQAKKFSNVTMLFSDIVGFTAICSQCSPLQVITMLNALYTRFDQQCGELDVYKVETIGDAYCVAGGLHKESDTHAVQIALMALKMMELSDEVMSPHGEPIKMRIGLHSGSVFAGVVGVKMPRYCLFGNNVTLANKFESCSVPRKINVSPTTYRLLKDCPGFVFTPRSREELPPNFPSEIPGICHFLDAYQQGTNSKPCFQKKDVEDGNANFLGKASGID
T1 sequence (Q02153 1-619): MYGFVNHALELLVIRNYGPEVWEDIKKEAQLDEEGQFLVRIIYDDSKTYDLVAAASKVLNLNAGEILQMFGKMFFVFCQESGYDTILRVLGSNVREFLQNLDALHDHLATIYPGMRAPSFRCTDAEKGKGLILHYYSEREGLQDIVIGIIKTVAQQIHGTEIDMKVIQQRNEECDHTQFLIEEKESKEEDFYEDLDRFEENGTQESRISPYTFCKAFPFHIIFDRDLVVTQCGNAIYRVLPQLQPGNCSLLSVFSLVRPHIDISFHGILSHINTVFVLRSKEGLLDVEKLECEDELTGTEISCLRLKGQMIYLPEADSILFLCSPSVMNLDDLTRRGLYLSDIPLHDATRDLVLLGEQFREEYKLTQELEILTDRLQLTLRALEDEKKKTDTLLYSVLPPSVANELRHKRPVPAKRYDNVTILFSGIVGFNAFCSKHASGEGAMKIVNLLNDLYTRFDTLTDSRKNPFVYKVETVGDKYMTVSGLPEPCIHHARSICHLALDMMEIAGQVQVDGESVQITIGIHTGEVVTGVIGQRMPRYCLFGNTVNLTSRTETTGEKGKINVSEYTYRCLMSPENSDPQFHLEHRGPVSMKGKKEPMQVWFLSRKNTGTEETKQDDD
Assay: Cell-based sGC functional assay (CASA assay): cGMP generation in CHO-K1/sGC cells, HTRF detection
Details: for EC50: inflection point (IP) of cGMP generation in CHO-K1/sGC cells, 4P fit, activity expressed as percentage of Compound A; for Emax: CHO-K1, percent activation relative to standard Compound A in CHO-K1/sGC cells, read-out: % Act.
Outline: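 Stable CHO-K1/sGC cells in EBSS buffer with 5 mM MgCl2, 0.05% BSA and 0.5 mM IBMX were incubated with compound (2.5% DMSO final) ±1 μM DETA-NO for 1 hr at 37° C. cGMP was measured by HTRF. Activation is expressed as % of reference HDA Compound A maximum, with IP and max fold induction from a 4P fit.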

SMILES | EC50 [nM] | % Act. (percent activation relative to standard Compound A in CHO-K1/sGC cells) [%] | Emax [%]
Nc1nc(-c2cn3ccnc3c(Cc3ccc(F)cc3)n2)nc2c1C(c1ccc(Cl)cn1)(C1CC1)C(=O)N2 (single isomer, unassigned) [Example 108A, 4-amino-5-(5-chloropyridin-2-yl)-5-cyclopropyl-2-(8-(4-fluorobenzyl)imidazo[1,2-a]pyrazin-6-yl)-5H-pyrrolo[2,3-d]pyrimidin-6(7H)-one] | 12 | 121 | 
CC1(c2ccc(F)cc2)C(=O)Nc2nc(-c3cn4cc(C(F)(F)F)nc4c(CCC(F)(F)C(F)(F)F)n3)nc(N)c21 (stereo not shown) [Example 156A, 4-amino-5-(4-fluorophenyl)-5-methyl-2-(8-(3,3,4,4,4-pentafluorobutyl)-2-(trifluoromethyl)imidazo[1,2-a]pyrazin-6-yl)-5H-pyrrolo[2,3-d]pyrimidin-6(7H)-one] | 163 |  | 92
Nc1nc(-c2cn3ccnc3cn2)nc2c1C(c1ccc(Cl)cc1)(C1CC1)C(=O)N2 (stereo not shown) [Example 146B, 4-amino-5-(4-chlorophenyl)-5-cyclopropyl-2-(imidazo[1,2-a]pyrazin-6-yl)-5H-pyrrolo[2,3-d]pyrimidin-6(7H)-one] | 461 |  | 95
CCC1(C)C(=O)Nc2nc(-c3cn4ccnc4c(Cc4ccccc4)n3)nc(N)c21 (stereo not shown) [Example 84A, 4-amino-2-(8-benzylimidazo[1,2-a]pyrazin-6-yl)-5-ethyl-5-methyl-5H-pyrrolo[2,3-d]pyrimidin-6(7H)-one] | 58 |  | 90
CCC(CC)Cc1nc(-c2nc(N)c3c(n2)NC(=O)C3(C)c2ccc(Cl)cc2)cn2ccnc12 (stereo not shown) [Example 9A, 4-amino-5-(4-chlorophenyl)-2-(8-(2-ethylbutyl)imidazo[1,2-a]pyrazin-6-yl)-5-methyl-5H-pyrrolo[2,3-d]pyrimidin-6(7H)-one] | 60 |  | 134
Nc1nc(-c2cn3ccnc3c(CCC(F)(F)F)n2)nc2c1C(c1ccc(C(F)(F)F)cn1)(C1CC1)C(=O)N2 (stereo not shown) [Example 340A, 4-amino-5-cyclopropyl-5-(5-(trifluoromethyl)pyridin-2-yl)-2-(8-(3,3,3-trifluoropropyl)imidazo[1,2-a]pyrazin-6-yl)-5H-pyrrolo[2,3-d]pyrimidin-6(7H)-one] | 808 |  | 129
CC(C)n1cc(C2(C)C(=O)Nc3nc(-c4cn5ccnc5c(Cc5ccc(F)cc5)n4)nc(N)c32)nn1 (stereo not shown) [Example 63A, 4-Amino-2-(8-(4-fluorobenzyl)imidazo[1,2-a]pyrazin-6-yl)-5-(1-isopropyl-1H-1,2,3-triazol-4-yl)-5-methyl-5H-pyrrolo[2,3-d]pyrimidin-6(7H)-one] | 109 |  | 99
COCCNc1nc(-c2cn3ccnc3c(CCC(F)(F)C(F)(F)F)n2)nc2c1C(C)(C)C(=O)N2 [Example 313, 4-((2-Methoxyethyl)amino)-5,5-dimethyl-2-(8-(3,3,4,4,4-pentafluorobutyl)imidazo[1,2-a]pyrazin-6-yl)-5H-pyrrolo[2,3-d]pyrimidin-6(7H)-one] | 25 |  | 93
COCCNc1nc(-c2cn3ccnc3c(CCC(F)(F)C(F)(F)F)n2)nc2c1C(C)(c1ccc(F)cn1)C(=O)N2 (stereo not shown) [Example 293B, 5-(5-fluoropyridin-2-yl)-4-((2-methoxyethyl)amino)-5-methyl-2-(8-(3,3,4,4,4-pentafluorobutyl)imidazo[1,2-a]pyrazin-6-yl)-5H-pyrrolo[2,3-d]pyrimidin-6(7H)-one] | 509 |  | 107
CC1(c2cc(F)cc(F)c2)C(=O)Nc2nc(-c3cn4ccnc4c(CCC(F)(F)F)n3)nc(N)c21 (stereo not shown) [Example 195B, 4-amino-5-(3,5-difluorophenyl)-5-methyl-2-(8-(3,3,3-trifluoropropyl)imidazo[1,2-a]pyrazin-6-yl)-5H-pyrrolo[2,3-d]pyrimidin-6(7H)-one] | 312 |  | 114

Continued by falling EC50, values first:

EC50 [nM] | % Act. (percent activation relative to standard Compound A in CHO-K1/sGC cells) [%] | Emax [%] | SMILES
2100 |  | 106 | CCCc1nc(-c2nc(N)c3c(n2)NC(=O)C3(c2ccc(C(F)(F)F)cn2)C2CC2)cn2ccnc12 (stereo not shown) [Example 341A, 4-amino-5-cyclopropyl-2-(8-propylimidazo[1,2-a]pyrazin-6-yl)-5-(5-(trifluoromethyl)pyridin-2-yl)-5H-pyrrolo[2,3-d]pyrimidin-6(7H)-one]
667 |  | 166 | CC1(c2cc(F)cc(F)c2)C(=O)Nc2nc(-c3cn4ccnc4cn3)nc(N)c21 (stereo not shown) [Example 142B, 4-amino-5-(3,5-difluorophenyl)-2-(imidazo[1,2-a]pyrazin-6-yl)-5-methyl-5H-pyrrolo[2,3-d]pyrimidin-6(7H)-one]
492 |  | 136 | CC1(c2ccc(F)cc2)C(=O)Nc2nc(-c3cn4ccnc4c(CCC(F)(F)C(F)(F)F)n3)nc(N3CCSCC3)c21 (stereo not shown) [Example 300A, 5-(4-fluorophenyl)-5-methyl-2-(8-(3,3,4,4,4-pentafluorobutyl)imidazo[1,2-a]pyrazin-6-yl)-4-thiomorpholine-5H-pyrrolo[2,3-d]pyrimidin-6(7H)-one]
473 |  | 114 | CC1(C2CC2)C(=O)Nc2nc(-c3cn4ccnc4c(Cc4ccccc4)n3)nc(N)c21 (single isomer, unassigned) [Example 82B, 4-amino-2-(8-benzylimidazo[1,2-a]pyrazin-6-yl)-5-cyclopropyl-5-methyl-5H-pyrrolo[2,3-d]pyrimidin-6(7H)-one]
466 |  | 101 | CC1(c2ccc(Cl)cc2)C(=O)Nc2nc(-c3cn4ccnc4c(CCC(F)(F)F)n3)nc(N3CCOCC3)c21 (stereo not shown) [Example 297A, 5-(4-chlorophenyl)-5-methyl-4-morpholino-2-(8-(3,3,3-trifluoropropyl)imidazo[1,2-a]pyrazin-6-yl)-5H-pyrrolo[2,3-d]pyrimidin-6(7H)-one]
444 |  | 89 | CC1(c2ccc(F)cn2)C(=O)Nc2nc(-c3cn4ccnc4c(CCC(F)(F)C(F)(F)F)n3)nc(N3CCOCC3)c21 (stereo not shown) [Example 294B, 5-(5-fluoropyridin-2-yl)-5-methyl-4-morpholino-2-(8-(3,3,4,4,4-pentafluorobutyl)imidazo[1,2-a]pyrazin-6-yl)-5H-pyrrolo[2,3-d]pyrimidin-6(7H)-one]
252 |  | 83 | CCC1(c2ccc(F)cn2)C(=O)Nc2nc(-c3cn4ccnc4c(Cc4ccc(F)cc4)n3)nc(N)c21 (stereo not shown) [Example 106A, 4-amino-5-ethyl-2-(8-(4-fluorobenzyl)imidazo[1,2-a]pyrazin-6-yl)-5-(5-fluoropyridin-2-yl)-5H-pyrrolo[2,3-d]pyrimidin-6(7H)-one]
86 |  | 171 | CC1(c2ccc(Cl)cn2)C(=O)Nc2nc(-c3cn4ccnc4c(Cc4ccc(F)cc4)n3)nc(N)c21 (stereo not shown) [Example 107A, 4-amino-5-(5-chloropyridin-2-yl)-2-(8-(4-fluorobenzyl)imidazo[1,2-a]pyrazin-6-yl)-5-methyl-5H-pyrrolo[2,3-d]pyrimidin-6(7H)-one]
44 |  | 111 | CC1(C)C(=O)Nc2nc(-c3cn4ccnc4c(Cc4ccc(F)c(F)c4)n3)nc(N)c21 [Example 73, 4-amino-2-(8-(3,4-difluorobenzyl)imidazo[1,2-a]pyrazin-6-yl)-5,5-dimethyl-5H-pyrrolo[2,3-d]pyrimidin-6(7H)-one]
4 |  | 109 | CC1(c2ccc(Cl)cc2)C(=O)Nc2nc(-c3cn4ccnc4c(Cc4cccc(Cl)c4)n3)nc(N)c21 (stereo not shown) [Example 95A, 4-amino-2-(8-(3-chlorobenzyl)imidazo[1,2-a]pyrazin-6-yl)-5-(4-chlorophenyl)-5-methyl-5H-pyrrolo[2,3-d]pyrimidin-6(7H)-one]

Source: patent US9796733B2, “Imidazo-pyrazine derivatives useful as soluble guanylate cyclase activators” (Merck Sharp & Dohme Corp., priority 2014, dated 2017)
